Test results taken from US5081253A, “Imidazo(4,5-C)pyridines as antiosteoporotic agents” (American Home Products Corporation, priority 1990, dated 1992).

Columns and labels:
[1] = system: Rat Limb Bones (PTH induced bone resorption); assay: Bone Resorption Assay: 45Ca Release from Rat Limb Bones (PTH Induced); assay type: cell-based, rat (Sprague-Dawley CD)
Procedure: The purpose of this assay is to identify compounds that inhibit basal or stimulated bone resorption in culture.
The ability of 2-substituted-imidazo[4,5-c]pyridines to modify the process of bone resorption was evaluated essentially as described by L.G. Raisz, Bone resorption in tissue culture. Factors influencing the response to parathyroid hormone.
Timed pregnant Sprague-Dawley CD® rats (Charles River) are administered 100 μCi ^45 CaCl2 (NEN calcium -45 NEZ-013) in 100 μL of 0.9% saline, subcutaneously, on day 18 of gestation. The rats are sacrificed the following day by CO2 asphyxiation. The fetuses are removed and the right forelimbs excised and placed in a Petri dish containing ice cold explant medium consisting of modified BGJb -Fitton Jackson media (custom formulation, Gibco No. 78-0088) adjusted to pH 7.3 to which 10 mM TES is added. […] Under a dissecting microscope, the bones are gently cleaned of adherent tissue and the cartilaginous ends removed. Incubation and drug treatment. […] The preincubation medium is brought to 37° C. prior to transfer of bones. The preincubation medium consists of the modified BGJb medium (with salts and glucose as above), pH 7.3, containing 29 mM NaHCO3. […] For compounds that require nonaqueous solvents, dilutions are made from the appropriate stock solution with medium. In these instances, basal and bone resorption stimulated controls exposed to an equivalent concentration of the vehicle are included. […] The right ulna and radius from each fetus are used. Both bones are subjected to the same treatment and each treatment group consists of bones from 4 or more fetuses. Treatments are randomly assigned using a preclinical statistics program (PS-ALLOC). After a 48 hour incubation at 37° C. in 5% CO2, the bones are removed from the medium and extracted in 0.5 mL of 0.1N HCl for 1 or more days. Duplicate 150 μL aliquots of the incubation medium and the bone extract are analyzed for ^45 Ca radioactivity in 5 mL of liquid scintillation cocktail.
The percentage of bone ^45 Ca released into the medium is determined as follows: [formula] […]

[2] = system: osteopenia induced by denervation of the sciatic nerve in rats; assay: Denervation Induced Osteopenia in Rats; assay type: in vivo, rat (female Sprague Dawley CD)
Text: The purpose of this assay is to evaluate the effect, in rats, of agents on the reduction in bone mass (osteopenia) induced by immobilization resulting from surgical severance (denervation) of the sciatic nerve.
The animals are housed in plastic cages (4 or 5 rats/cage) with food (rat purina 500 chow) and water ad libitum; 14/10 day/night cycle.
After one week of in-house acclimatization, the animals are randomly divided into groups of 6 to 10 rats/group. Each rat is weighed, anesthetized with an intraperitoneal administration of 100 mg/kg ketamine (Bristol Laboratories, Syracuse, N.Y.) and 0.75 mg/kg Acepromazine (Aveco, Ft. Dodge, Iowa). The left hind limb is shaved and denervated by making a lateral incision parallel to the femur and by surgically removing half of a centimeter of the sciatic nerve adjacent to caudofemoralis and adductor brevis muscles. The incision is closed with wound clips. After surgery, the rats are housed in cages with absorbent bedding to minimize additional trauma to the immobilized limb. A 24 hour post-surgery recovery period is allowed before the initiation of the drug treatment.
The concentration of the drug stock is calculated to be delivered in a volume of 0.1 mL/100 gram body weight. The drug solution or a uniform suspension is prepared in 1% Tween 80 in normal saline. The drugs are administered via oral or parenteral routes daily (five times a week) for four weeks.
A sequential triple labeling of mineralized tissue is employed to determine the osseous changes (especially the bone formation) and the mineralization rates. Each animal is administered 90 mg/kg Xylenol orange (Fisher Scientific Company), S.C., 15 mg/kg Calcein (Sigma Chemical Company), S.C. and 15 mg/kg Demeclocycline (Sigma Chemical Company), i.p., approximately 21 days, 10 days and 2 days prior to the termination of the study, respectively.
At the end of the fourth week, each rat is weighed, anesthetized with an intraperitoneal administration of 100 mg/kg ketamine with 0.75 mg/kg Acepromazine and approximately 4 mL of blood collected via cardiac puncture. The anesthetized rats are euthanized by exposure to carbon dioxide. The femora and tibiae from both limbs are dissected free of soft tissue. (i) Femora are ashed at ~1100° C. for 16 hours using a muffle furnace. --(ii) Proximal tibia are fixed, dehydrated and embedded undecalcified in a methyl methacrylate-glycol methacrylate mixture. Longitudinal tissue sections (10 microns) are prepared on a Polycut S microtome (Reichert). Staining is performed on free-floating sections using a modified Goldner's stain, which are then mounted and coverslipped.
Cancellous bone content in the proximal tibia is quantified (as two dimensional bone mineral area [B.Ar]) with an image analysis processing device (software developed by Drexel University).
The areas of the tibia selected for cancellous bone content evaluation are the primary and secondary spongiosa. To select and standardize this area for evaluation, the epiphyseal growth plate-metaphyseal junction is oriented parallel to the abscissa of the digitizing screen. Bone elements 1.7 mm (secondary spongiosa) and 0.2 mm (primary spongiosa) from the growth plate and equidistant from the flanking cortical elements are then quantified as described above. The total area evaluated is 2.30 mm wide and 1.45 mm deep, constituting a 3.34 mm^2 area.
Body weight, femur mass (dried or ashed) and trabecular (cancellous) bone mineral area (B.Ar) are determined.
The difference (both absolute and percent change) in femur mass and bone mineral area between intact (control) and denervated limbs of a treatment group are compared with that for the vehicle group using a one-way analysis of variance with Dunnett's test, or other multiple comparison methods.
The results are reported in Table I and II under the heading In Vivo.

[3] = Table I, concentration not given
[4] = Table II, 25 mg/kg, route not given

Row | Compound | Inhibition of Bone Resorption, In Vivo ([2]; po, 672 h) | Inhibition of Bone Resorption, PTH Induced ([1]; Table II, 10 μg/mL) | Inhibition of Bone Resorption, In Vivo [2, 4] | Inhibition of Bone Resorption, PTH Induced ([1]; Table I, 10 μg/mL) | further results
1 | COc1cc(C[S+]([O-])c2nc3cnccc3[nH]2)cc(OC)c1OC (stereo not drawn) [Example 29, 2-[[(3,4,5-Trimethoxyphenyl)methyl]sulfinyl]-1H-imidazo[4,5-c]pyridine-One Third Hydrate] | Inactive |  |  |  | Inhibition of Bone Resorption, PTH Induced [1, 3]: Inactive
2 | COc1cccc(CCSc2nc3cnccc3[nH]2)c1 [Example 16, 2-[[(3-Methoxyphenyl)ethyl]thio]-1H-imidazo[4,5-c]pyridine] |  | Inactive |  |  | Inhibition of Bone Resorption, In Vivo ([2]; Table II, 25 mg/kg, p.o.): Inactive
3 | N#Cc1ccccc1CSc1nc2cnccc2[nH]1 [Example 38, 2-[(1H-Imidazo[4,5-c]pyridin-2-ylthio)methyl]benzonitrile] |  | Inactive | Inactive |  | 
4 | Fc1ccccc1CSc1nc2cnccc2[nH]1 [Example 40, 2-[[(2-Fluorophenyl)methyl]thio]-1H-imidazo[4,5-c]pyridine] |  | Active | Inactive |  | 
5 | c1ccc(Oc2cccc(CSc3nc4cnccc4[nH]3)c2)cc1 [Example 46, 2-[[(3-Phenoxyphenyl)methyl]thio]-1H-imidazo[4,5-c]pyridine] |  | Inactive | Inactive |  | 
6 | [O-][S+](Cc1cccc(Oc2ccccc2)c1)c1nc2cnccc2[nH]1 (stereo not drawn) [Example 47, 2-[[(3-Phenoxyphenyl)methyl]sulfinyl]-1H-imidazo[4,5-c]pyridine] | Inactive |  |  | Active | 
7 | COc1ccc(CSc2nc3cnccc3[nH]2)cc1C [Example 50, 2-[[(4-Methoxy-3-methylphenyl)methyl]thio]-1H-imidazo[4,5-c]pyridine] |  |  | Inactive |  | 
8 | COc1cccc(C[S+]([O-])c2nc3cnccc3[nH]2)c1 (single isomer, unassigned) [Example 57] |  |  |  |  | Inhibition of Bone Resorption, PTH Induced [1, 3]: Active
9 | COc1ccccc1C[S+]([O-])c1nc2cnccc2[nH]1 (stereo not drawn) [Example 43, 2-[[(2-Methoxyphenyl)methyl]sulfinyl]-1H-imidazo[4,5-c]pyridine] |  |  |  | Active | 
10 | [O-][S+](Cc1ccccc1F)c1nc2cnccc2[nH]1 (stereo not drawn) [Example 41, 2-[[(2-Fluorophenyl)methyl]sulfinyl]-1H-imidazo[4,5-c]pyridine Quarter Hydrate] | Inactive |  |  | Active | 
11 | COc1cccc(C[S+]([O-])c2nc3cnccc3[nH]2)c1 (single isomer, unassigned) [Example 58, [R-(-)]-2-[[(3-Methoxyphenyl)methyl]sulfinyl]-1H-imidazo[4,5-c]pyridine One Quarter Hydrate] |  |  |  |  | Inhibition of Bone Resorption, PTH Induced [1, 3]: Active
12 | 2-[[(3,5-Dimethoxyphenyl)methyl]thio]-1H-imidazo[4,5-c]pyridine [Example 44] |  | Active | Inactive |  | 
13 | N#Cc1ccccc1C[S+]([O-])c1nc2cnccc2[nH]1 (stereo not drawn) [Example 39, 2-[[(1H-Imidazo[4,5-c]pyridin-2-yl)sulfinyl]methyl]benzonitrile] | Inactive |  |  | Active | 
14 | Br.Br.Oc1cccc(CSc2nc3cnccc3[nH]2)c1 [Example 54, 3-[[(1H-Imidazo[4,5-c]pyridin-2-yl)thio]methyl]phenol Dihydrobromide] |  | Inactive | Inactive |  | 
15 | COc1ccccc1CSc1nc2cnccc2[nH]1 [Example 42, 2-[[(2-Methoxyphenyl)methyl]thio]-1H-imidazo[4,5-c]pyridine] |  | Active |  |  | 
16 | O=[N+]([O-])c1cccc(CSc2nc3cnccc3[nH]2)c1 [Example 48, 2-[[(3-Nitrophenyl)methyl]thio]-1H-imidazo[4,5-c]pyridine] |  |  | Inactive |  | 
17 | O=[N+]([O-])c1cccc(C[S+]([O-])c2nc3cnccc3[nH]2)c1 (stereo not drawn) [Example 49, 2-[[(3-Nitrophenyl)methyl]sulfinyl]-1H-imidazo[4,5-c]pyridine 0.15 Dimethylformamide] | Inactive |  |  |  | 
18 | COc1cc(C[S+]([O-])c2nc3cnccc3[nH]2)cc(OC)c1 (stereo not drawn) [Example 45, 2-[[(3,5-Dimethoxyphenyl)methyl]sulfinyl]-1H-imidazo[4,5-c]pyridine] | Inactive |  |  | Active | 
19 | Clc1cc2c(cc1CSc1nc3cnccc3[nH]1)OCO2 [Example 24, 2-[[(6-Chloro-1,3-benzodioxol-5-yl)methyl]thio]-1H-imidazo[4,5-c]pyridine] |  | Active |  |  | 
20 | COc1ccc(C[S+]([O-])c2nc3cnccc3[nH]2)cc1C (stereo not drawn) [Example 51, 2-[[(4-Methoxy-3-methylphenyl)methyl]sulfinyl]-1H-imidazo[4,5-c]pyridine] | Inactive |  |  |  | 
21 | COc1ccc(C[S+]([O-])c2nc3cnccc3[nH]2)cc1 (stereo not drawn) [Example 27, 2-[[(4-Methoxyphenyl)methyl]sulfinyl]-1H-imidazo[4,5-c]-pyridine-One Third Hydrate] | Inactive |  |  | Active | 
22 | CCOc1cccc(CSc2nc3cnccc3[nH]2)c1 [Example 52, 2-[[(3-Ethoxyphenyl)methyl]thio]-1H-imidazo[4,5-c]pyridine] |  | Inactive | Inactive |  | 
23 | CCOc1cccc(C[S+]([O-])c2nc3cnccc3[nH]2)c1 (stereo not drawn) [Example 53, 2-[[(3-Ethoxyphenyl)methyl]sulfinyl]-1H-imidazo[4,5-c]pyridine One Third Hydrate] |  |  |  | Active | 
